Test results reported in paper PMC5218480 (PLoS ONE, 2017).

Tested on: MV-4-11 cells
Assay: Gene expression microarray analysis (Affymetrix PrimeView) and GSEA
Assay type: cell-based, human
Parameters: RFU PODN (11730768_x_at) / Fold change /veh PODN (11730768_x_at) / RFU LINC00158 (11744669_a_at) / Fold change /veh LINC00158 (11744669_a_at) / RFU DUSP10 (11751237_a_at) / Fold change /veh DUSP10 (11751237_a_at) / RFU ID3 (11757404_x_at) / Fold change /veh ID3 (11757404_x_at) / RFU PLEKHG5 (11737974_s_at) / Fold change /veh PLEKHG5 (11737974_s_at) / RFU LRRC4B (11730491_at) / Fold change /veh LRRC4B (11730491_at) / RFU GIMAP4 (11747438_a_at) / Fold change /veh GIMAP4 (11747438_a_at) / RFU KRT8 (11758183_x_at) / Fold change /veh KRT8 (11758183_x_at) / RFU CNN1 (11734310_a_at) / Fold change /veh CNN1 (11734310_a_at) / RFU VPS37D (11726825_at) / Fold change /veh VPS37D (11726825_at) / RFU C10orf10 (11716522_x_at) / Fold change /veh C10orf10 (11716522_x_at) / RFU KIR2DL2 /// KIR2DL4 /// KIR2DL5A /// KIR2DL5B /// KIR2DS1 /// KIR2DS2 /// KIR2DS3 /// KIR2DS4 /// KIR3DL3 /// KIR3DL3 /// KIR3DS1 (11738374_at) / Fold change /veh KIR2DL2 /// KIR2DL4 /// KIR2DL5A /// KIR2DL5B /// KIR2DS1 /// KIR2DS2 /// KIR2DS3 /// KIR2DS4 /// KIR3DL3 /// KIR3DL3 /// KIR3DS1 (11738374_at) / RFU C1QL1 (11718748_at) / Fold change /veh C1QL1 (11718748_at) / RFU TMPRSS4 (11747572_a_at) / Fold change /veh TMPRSS4 (11747572_a_at) / RFU HAMP (11756126_x_at) / Fold change /veh HAMP (11756126_x_at) / RFU RNFT2 (11725882_a_at) / Fold change /veh RNFT2 (11725882_a_at) / RFU NR4A2 (11747474_a_at) / Fold change /veh NR4A2 (11747474_a_at) / RFU ABCC12 (11746883_a_at) / Fold change /veh ABCC12 (11746883_a_at) / RFU TMEM136 (11760407_x_at) / Fold change /veh TMEM136 (11760407_x_at) / RFU CLDN22 /// WWC2 (11732394_at) / Fold change /veh CLDN22 /// WWC2 (11732394_at) / RFU HLA-DPB1 (11760878_x_at) / Fold change /veh HLA-DPB1 (11760878_x_at) / RFU SPINT1 (11716480_a_at) / Fold change /veh SPINT1 (11716480_a_at) / RFU GAP43 (11754022_s_at) / Fold change /veh GAP43 (11754022_s_at) / RFU A4GNT (11735810_at) / Fold change /veh A4GNT (11735810_at) / RFU PRB3 (11715151_x_at) / Fold change /veh PRB3 (11715151_x_at) / RFU TUBB4B (11761932_at) / Fold change /veh TUBB4B (11761932_at) / RFU CAPN14 (11732068_a_at) / Fold change /veh CAPN14 (11732068_a_at) / RFU TMCC2 (11721928_a_at) / Fold change /veh TMCC2 (11721928_a_at) / RFU IRGQ (11745062_a_at) / Fold change /veh IRGQ (11745062_a_at) / RFU FAM174B (11720279_a_at) / Fold change /veh FAM174B (11720279_a_at) / RFU TMPRSS4 (11748680_a_at) / Fold change /veh TMPRSS4 (11748680_a_at) / RFU FAM212B (11763350_a_at) / Fold change /veh FAM212B (11763350_a_at) / RFU PLEKHG5 (11743358_a_at) / Fold change /veh PLEKHG5 (11743358_a_at) / RFU ZSCAN30 (11745921_a_at) / Fold change /veh ZSCAN30 (11745921_a_at) / RFU CMKLR1 (11741424_a_at) / Fold change /veh CMKLR1 (11741424_a_at) / RFU LOC101060620 /// MAPK8IP1 (11723275_at) / Fold change /veh LOC101060620 /// MAPK8IP1 (11723275_at) / RFU SPTSSB (11747773_x_at) / Fold change /veh SPTSSB (11747773_x_at) / RFU PRSS12 (11739890_at) / Fold change /veh PRSS12 (11739890_at) / RFU BIN1 (11741810_x_at) / Fold change /veh BIN1 (11741810_x_at) / RFU WNT11 (11732464_a_at) / Fold change /veh WNT11 (11732464_a_at) / RFU C10orf10 (11716521_a_at) / Fold change /veh C10orf10 (11716521_a_at) / RFU C5orf56 (11738089_at) / Fold change /veh C5orf56 (11738089_at) / RFU CYB561 (11721691_x_at) / Fold change /veh CYB561 (11721691_x_at) / RFU ANKRD19P (11752326_a_at) / Fold change /veh ANKRD19P (11752326_a_at) / RFU OR2T12 /// OR2T33 /// OR2T8 (11738714_s_at) / Fold change /veh OR2T12 /// OR2T33 /// OR2T8 (11738714_s_at) / RFU VCAN (11748164_a_at) / Fold change /veh VCAN (11748164_a_at) / RFU JSRP1 (11732532_at) / Fold change /veh JSRP1 (11732532_at) / RFU KRTAP10-11 (11738290_x_at) / Fold change /veh KRTAP10-11 (11738290_x_at) / RFU MYO3A (11730013_a_at) / Fold change /veh MYO3A (11730013_a_at) / RFU EBF3 (11725865_a_at) / Fold change /veh EBF3 (11725865_a_at) / RFU CAMK2N1 (11719241_x_at) / Fold change /veh CAMK2N1 (11719241_x_at) / RFU C5orf56 (11738088_a_at) / Fold change /veh C5orf56 (11738088_a_at) / RFU OLFML3 (11715873_a_at) / Fold change /veh OLFML3 (11715873_a_at) / RFU LOC100653217 /// NTM (11731650_a_at) / Fold change /veh LOC100653217 /// NTM (11731650_a_at) / RFU MAPK11 (11762145_a_at) / Fold change /veh MAPK11 (11762145_a_at) / RFU FIZ1 (11724087_x_at) / Fold change /veh FIZ1 (11724087_x_at) / RFU OASL (11726364_x_at) / Fold change /veh OASL (11726364_x_at) / RFU SOX15 (11748057_x_at) / Fold change /veh SOX15 (11748057_x_at) / RFU CD79A (11719716_a_at) / Fold change /veh CD79A (11719716_a_at) / RFU HIST1H1D (11736915_at) / Fold change /veh HIST1H1D (11736915_at) / RFU CASKIN2 (11723855_a_at) / Fold change /veh CASKIN2 (11723855_a_at) / RFU LOC730098 (11760151_x_at) / Fold change /veh LOC730098 (11760151_x_at) / RFU OR4N2 (11742367_at) / Fold change /veh OR4N2 (11742367_at) / RFU PRRT2 (11749266_a_at) / Fold change /veh PRRT2 (11749266_a_at) / RFU SNX32 (11753110_a_at) / Fold change /veh SNX32 (11753110_a_at) / RFU CDHR5 (11726645_a_at) / Fold change /veh CDHR5 (11726645_a_at) / RFU RCAN1 (11760418_a_at) / Fold change /veh RCAN1 (11760418_a_at) / RFU FAM167A (11723789_a_at) / Fold change /veh FAM167A (11723789_a_at) / RFU FAM26E (11764081_at) / Fold change /veh FAM26E (11764081_at) / RFU ISYNA1 (11749810_s_at) / Fold change /veh ISYNA1 (11749810_s_at) / RFU ACY1 (11761880_at) / Fold change /veh ACY1 (11761880_at) / RFU 11764098_at / Fold change /veh 11764098_at / RFU SAMD14 (11745864_x_at) / Fold change /veh SAMD14 (11745864_x_at) / RFU NPB (11741838_a_at) / Fold change /veh NPB (11741838_a_at) / RFU TMPRSS6 (11731388_a_at) / Fold change /veh TMPRSS6 (11731388_a_at) / RFU KRTAP10-2 (11738614_at) / Fold change /veh KRTAP10-2 (11738614_at) / RFU ARHGAP8 /// PRR5-ARHGAP8 (11727945_x_at) / Fold change /veh ARHGAP8 /// PRR5-ARHGAP8 (11727945_x_at) / RFU KRTAP5-7 /// NADSYN1 (11734609_at) / Fold change /veh KRTAP5-7 /// NADSYN1 (11734609_at) / RFU RASL12 (11751679_a_at) / Fold change /veh RASL12 (11751679_a_at) / RFU CDKN2B (11736163_a_at) / Fold change /veh CDKN2B (11736163_a_at) / RFU PRF1 (11729649_at) / Fold change /veh PRF1 (11729649_at) / RFU, ZNF638 /// ZNF638-IT1 / Fold change vs veh, ZNF638 /// ZNF638-IT1 / RFU, PANK3 / Fold change vs veh, PANK3 / RFU, SH3YL1 / Fold change vs veh, SH3YL1 / RFU, ZEB2 / Fold change vs veh, ZEB2 / RFU, NRIP1 / Fold change vs veh, NRIP1 / RFU, PTTG1IP / Fold change vs veh, PTTG1IP / RFU, CAPN2 / Fold change vs veh, CAPN2 / RFU, MED14 / Fold change vs veh, MED14 / RFU, SNORA58 / Fold change vs veh, SNORA58 / RFU, C1orf63 / Fold change vs veh, C1orf63 / RFU, LRRFIP1 / Fold change vs veh, LRRFIP1 / RFU, NDUFAF7 / Fold change vs veh, NDUFAF7 / RFU, SLC12A2 / Fold change vs veh, SLC12A2 / RFU, IBTK / Fold change vs veh, IBTK / RFU, ESF1 / Fold change vs veh, ESF1 / Fold change vs veh, TMEM50B / RFU, TAOK1 / Fold change vs veh, TAOK1 / RFU, ACBD3 / Fold change vs veh, ACBD3 / RFU, TMA16 / Fold change vs veh, TMA16 / RFU, RWDD3 / Fold change vs veh, RWDD3 / RFU, BCAT1 / Fold change vs veh, BCAT1 / RFU, EDEM3 / Fold change vs veh, EDEM3 / RFU, TMEM33 / Fold change vs veh, TMEM33 / RFU, WDR75 / Fold change vs veh, WDR75 / RFU, AHCTF1 / Fold change vs veh, AHCTF1 / RFU, TFRC / Fold change vs veh, TFRC / RFU, ZDHHC17 / Fold change vs veh, ZDHHC17 / RFU, NOM1 / Fold change vs veh, NOM1 / RFU, ARL8B / Fold change vs veh, ARL8B / RFU, ZBTB11 / Fold change vs veh, ZBTB11 / RFU, TAMM41 / Fold change vs veh, TAMM41 / RFU, KIAA1704 /// LOC100996395 / Fold change vs veh, KIAA1704 /// LOC100996395 / RFU, ING1 / Fold change vs veh, ING1 / RFU, TRMT61B / Fold change vs veh, TRMT61B / RFU, FUBP3 / Fold change vs veh, FUBP3 / RFU, TP53 / Fold change vs veh, TP53 / RFU, TNKS2 / Fold change vs veh, TNKS2 / RFU, ZFP14 / Fold change vs veh, ZFP14 / RFU, ACTR2 / Fold change vs veh, ACTR2 / RFU, PPP3R1 / Fold change vs veh, PPP3R1 / RFU, PIK3R1 / Fold change vs veh, PIK3R1 / RFU, HNRNPA1 / Fold change vs veh, HNRNPA1 / RFU, RNF170 / Fold change vs veh, RNF170 / RFU, ZNF28 / Fold change vs veh, ZNF28 / RFU, RNGTT / Fold change vs veh, RNGTT / RFU, OGT / Fold change vs veh, OGT / RFU, BRD1 / Fold change vs veh, BRD1 / RFU, MARS / Fold change vs veh, MARS / RFU, ZNF655 / Fold change vs veh, ZNF655 / RFU, FAHD1 / Fold change vs veh, FAHD1 / RFU, BDP1 / Fold change vs veh, BDP1 / RFU, LRRCC1 / Fold change vs veh, LRRCC1 / RFU, ARID1A / Fold change vs veh, ARID1A / RFU, ZNF146 / Fold change vs veh, ZNF146 / RFU, ZNF330 / Fold change vs veh, ZNF330 / RFU, GPN3 / Fold change vs veh, GPN3 / RFU, C9orf123 / Fold change vs veh, C9orf123 / RFU, N4BP2L2 / Fold change vs veh, N4BP2L2 / RFU, ARFIP1 / Fold change vs veh, ARFIP1 / RFU, FAM179B / Fold change vs veh, FAM179B / RFU, BCL10 / Fold change vs veh, BCL10 / RFU, UHRF1BP1L / Fold change vs veh, UHRF1BP1L / RFU, BET1 / Fold change vs veh, BET1 / RFU, CNOT2 / Fold change vs veh, CNOT2 / RFU, ZNF268 / Fold change vs veh, ZNF268 / Fold change vs veh, ZNF507 / RFU, DGCR2 / Fold change vs veh, DGCR2 / RFU, WDSUB1 / Fold change vs veh, WDSUB1 / Fold change vs veh, HSP90B1 /// MIR3652 / RFU, ADSS / Fold change vs veh, ADSS / RFU, GK / Fold change vs veh, GK / RFU, ZNF148 / Fold change vs veh, ZNF148 / RFU, TAF9 / Fold change vs veh, TAF9 / RFU, SLC1A5 / Fold change vs veh, SLC1A5 / RFU, SLMO2 / Fold change vs veh, SLMO2 / RFU, ABCC4 / Fold change vs veh, ABCC4 / RFU, LOC101060439 /// RAP1B / Fold change vs veh, LOC101060439 /// RAP1B / RFU, RFX7 / Fold change vs veh, RFX7 / RFU, GTPBP10 / Fold change vs veh, GTPBP10 / RFU, CNEP1R1 / Fold change vs veh, CNEP1R1 / RFU, BIVM-ERCC5 /// ERCC5 / Fold change vs veh, BIVM-ERCC5 /// ERCC5 / RFU, ILF3 / Fold change vs veh, ILF3 / RFU 11762660_at / Fold change /veh 11762660_at / RFU VCAN (11757783_s_at) / Fold change /veh VCAN (11757783_s_at) / RFU DDX43 (11728927_at) / Fold change /veh DDX43 (11728927_at) / RFU KRT8 (11758188_x_at) / Fold change /veh KRT8 (11758188_x_at) / RFU NKD1 (11759106_at) / Fold change /veh NKD1 (11759106_at) / RFU SRD5A1 (11742802_a_at) / Fold change /veh SRD5A1 (11742802_a_at) / RFU TPSAB1 /// TPSB2 (11721975_s_at) / Fold change /veh TPSAB1 /// TPSB2 (11721975_s_at) / RFU GSTM3 (11746129_a_at) / Fold change /veh GSTM3 (11746129_a_at) / RFU IL23R (11737362_x_at) / Fold change /veh IL23R (11737362_x_at) / RFU TMEM51 (11727254_a_at) / Fold change /veh TMEM51 (11727254_a_at) / RFU PIWIL2 (11732686_x_at) / Fold change /veh PIWIL2 (11732686_x_at) / RFU ORM1 (11744905_x_at) / Fold change /veh ORM1 (11744905_x_at) / RFU CCDC152 (11743942_at) / Fold change /veh CCDC152 (11743942_at) / RFU ECM1 (11717891_a_at) / Fold change /veh ECM1 (11717891_a_at) / RFU IL23R (11748794_a_at) / Fold change /veh IL23R (11748794_a_at) / RFU TNFAIP8L3 (11732012_x_at) / Fold change /veh TNFAIP8L3 (11732012_x_at) / RFU MBOAT4 (11741988_at) / Fold change /veh MBOAT4 (11741988_at) / RFU 11764193_at / Fold change /veh 11764193_at / RFU TMEM53 (11763286_at) / Fold change /veh TMEM53 (11763286_at) / RFU MAGEB2 (11727129_at) / Fold change /veh MAGEB2 (11727129_at) / RFU TMEM200A (11744735_a_at) / Fold change /veh TMEM200A (11744735_a_at) / RFU CCDC152 (11751479_a_at) / Fold change /veh CCDC152 (11751479_a_at) / RFU FAM211A (11726209_a_at) / Fold change /veh FAM211A (11726209_a_at) / RFU RGS16 (11746705_a_at) / Fold change /veh RGS16 (11746705_a_at) / RFU VCAN (11755009_s_at) / Fold change /veh VCAN (11755009_s_at) / RFU RHOB (11743442_s_at) / Fold change /veh RHOB (11743442_s_at) / RFU RGS16 (11720943_a_at) / Fold change /veh RGS16 (11720943_a_at) / RFU RGS16 (11720944_at) / Fold change /veh RGS16 (11720944_at) / RFU, VPS4B / Fold change vs veh, VPS4B / RFU, CREB1 / Fold change vs veh, CREB1 / RFU, DNAJC13 / Fold change vs veh, DNAJC13 / RFU, GNAQ / Fold change vs veh, GNAQ / RFU, CDK5R1 / Fold change vs veh, CDK5R1 / RFU, ZRANB3 / Fold change vs veh, ZRANB3 / RFU, CUL4A / Fold change vs veh, CUL4A / RFU, CCNY / Fold change vs veh, CCNY / RFU, UFL1 / Fold change vs veh, UFL1 / RFU, COG3 / Fold change vs veh, COG3 / RFU, DIAPH2 / Fold change vs veh, DIAPH2 / RFU, SKA2 / Fold change vs veh, SKA2 / RFU, AFF3 / Fold change vs veh, AFF3 / RFU, LMF1 / Fold change vs veh, LMF1 / RFU, IPO11 / Fold change vs veh, IPO11 / RFU, DFFB / Fold change vs veh, DFFB / RFU, FOXP1 / Fold change vs veh, FOXP1 / RFU, CARD8 / Fold change vs veh, CARD8 / RFU, STRN3 / Fold change vs veh, STRN3 / RFU, ADK / Fold change vs veh, ADK / RFU, RASSF2 / Fold change vs veh, RASSF2 / RFU, WIPF1 / Fold change vs veh, WIPF1 / RFU, LARP1B / Fold change vs veh, LARP1B / RFU, RASA1 / Fold change vs veh, RASA1 / RFU, RB1 / Fold change vs veh, RB1 / RFU, PPFIA1 / Fold change vs veh, PPFIA1 / RFU, MAT2A / Fold change vs veh, MAT2A / RFU, CCT5 / Fold change vs veh, CCT5 / RFU, WDR92 / Fold change vs veh, WDR92 / RFU, CUX1 / Fold change vs veh, CUX1 / RFU, TTC7A / Fold change vs veh, TTC7A / RFU, TMEM135 / Fold change vs veh, TMEM135 / RFU, DEPTOR / Fold change vs veh, DEPTOR / RFU, CPM / Fold change vs veh, CPM / RFU, DNAJB6 / Fold change vs veh, DNAJB6 / RFU, CACNA2D3 / Fold change vs veh, CACNA2D3 / RFU, DTX4 / Fold change vs veh, DTX4 / RFU, TFCP2 / Fold change vs veh, TFCP2 / RFU, GMCL1 /// GMCL1P1 / Fold change vs veh, GMCL1 /// GMCL1P1 / RFU, AEBP2 / Fold change vs veh, AEBP2 / RFU, SNHG1 /// SNORD22 /// SNORD25 /// SNORD26 /// SNORD27 /// SNORD28 /// SNORD29 /// SNORD31 / Fold change vs veh, SNHG1 /// SNORD22 /// SNORD25 /// SNORD26 /// SNORD27 /// SNORD28 /// SNORD29 /// SNORD31 / Fold change (Aza/veh), C12orf56 (ProbeSet 11735607_a_at) / Fold change (ACY-1035/veh), C12orf56 (ProbeSet 11735607_a_at) / Fold change (Aza/veh), FGFR1OP (ProbeSet 11751329_s_at) / Fold change (ACY-1035/veh), FGFR1OP (ProbeSet 11751329_s_at) / Fold change (Aza/veh), VPS36 (ProbeSet 11739960_a_at) / Fold change (ACY-1035/veh), VPS36 (ProbeSet 11739960_a_at) / RFU SYPL1 (11715823_x_at) / Fold change /veh SYPL1 (11715823_x_at) / RFU IGFBP7 (11715501_s_at) / Fold change /veh IGFBP7 (11715501_s_at) / RFU REEP3 (11722064_at) / Fold change /veh REEP3 (11722064_at) / RFU IGLL1 (11728026_x_at) / Fold change /veh IGLL1 (11728026_x_at): dose or concentration left out as unconfirmed
Settings: MV-4-11 cells, 48 hours

Nc1ccc(-c2cccs2)cc1NC(=O)c1ccc2c(c1)cc(C1CC1)n2CCN1CCOCC1 [ACY-1035]
Fold change /veh TPSAB1 /// TPSB2 (11721975_s_at): 0.95
